Data published in patent US20180263993A1, “METHOD FOR PREVENTING AND/OR TREATING CHRONIC TRAUMATIC ENCEPHALOPATHY-IV” (Eustralis Pharmaceuticals Limited (trading as Pressura …, priority 2013, published 2018).

Tested on: tau phosphorylation
Experiment: Tau phosphorylation after concussive injury in the rat (phosphorylated tau immunohistology)
Format: in vivo
Details: rat concussion model; 1 mg/kg intravenously at 30 min after induction of injury; assessed 3 days after the concussive event; compared with injured and non-injured animals
From the text: Note that concussive injury in the rat causes extensive tau phosphorylation (B) by 3 days after the concussive event compared to non-injured animals (A).
Having established that hyperphosphorylated tau accumulates perivascularly following concussive injury, we used an animal model of concussion to investigate whether concussion causes perivascular release of substance P. We developed a rodent model of concussion to replicate the concussive event (Donkin et al., 2004, 7th International Neurotrauma Symposium, pp 75-78, Medimond Publishers, Bologna, Italy) and subsequently determined whether substance P was released after such an event. There was a clear increase in brain perivascular substance P immunoreactivity after the concussive event (FIG. 2).
Having shown that mechanical injury causes release of substance P after concussive injury, we then investigated whether a compound of formula (I) reduces tau hyperphosphorlation after concussive injury. […] Note that concussive injury in the rat causes extensive tau phosphorylation (B) by 3 days after the concussive event compared to non-injured animals (A). […] Thus, administration of a compound of formula (I) prevents tau hyperphosphorylation and thus prevents the development of CTE.

`Cc1ccccc1-c1cc(N2CCOCC2)ncc1N(C)C(=O)C(C)(C)c1cc(C(F)(F)F)cc(C(F)(F)F)c1` [compound of formula (I), 2-[3,5-bis(trifluoromethyl)phenyl]-N,2-dimethyl-N-[4-(2-methylphenyl)-6-morpholin-4-ylpyridin-3-yl]propanamide] was tested, and the “effect on tau phosphorylation after concussive injury” value was “almost complete inhibition of tau phosphorylation”.
